Test results as given in US20250145606A1 (Arcus Biosciences, Inc., priority 2023, published 2025).
Where two headings read alike, the source gives them in different places.

What was measured:
[1] = biological target: PDGFRβ (Homo sapiens (Human), UniProt P09619); experiment: Inhibition of PDGFRβ kinase activity (HTRF KinEASE-TK); details: biochemical
Summary of the method: (§1)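 Recombinant kinases (2 nM CSF1R and c-Kit, 10 nM PDGFRα/β, 2× working) preincubated 1 h with compound in 50 mM HEPES pH 7.4, 5 mM MgCl2 (c-Kit) or 10 mM (others), 2 mM MnCl2; 2× ATP: c-Kit 16 μM, PDGFRα 1 μM, PDGFRβ 40 μM, CSF1R 20 μM. 120 min reaction at rt; TR-FRET 665/620 nm; IC50 by 4-parameter fit.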

[2] = biological target: PDGFRα (Homo sapiens (Human), UniProt P16234); experiment: Inhibition of PDGFRα kinase activity (HTRF KinEASE-TK); details: biochemical
PDGFRα, sequence (P16234 24-1089): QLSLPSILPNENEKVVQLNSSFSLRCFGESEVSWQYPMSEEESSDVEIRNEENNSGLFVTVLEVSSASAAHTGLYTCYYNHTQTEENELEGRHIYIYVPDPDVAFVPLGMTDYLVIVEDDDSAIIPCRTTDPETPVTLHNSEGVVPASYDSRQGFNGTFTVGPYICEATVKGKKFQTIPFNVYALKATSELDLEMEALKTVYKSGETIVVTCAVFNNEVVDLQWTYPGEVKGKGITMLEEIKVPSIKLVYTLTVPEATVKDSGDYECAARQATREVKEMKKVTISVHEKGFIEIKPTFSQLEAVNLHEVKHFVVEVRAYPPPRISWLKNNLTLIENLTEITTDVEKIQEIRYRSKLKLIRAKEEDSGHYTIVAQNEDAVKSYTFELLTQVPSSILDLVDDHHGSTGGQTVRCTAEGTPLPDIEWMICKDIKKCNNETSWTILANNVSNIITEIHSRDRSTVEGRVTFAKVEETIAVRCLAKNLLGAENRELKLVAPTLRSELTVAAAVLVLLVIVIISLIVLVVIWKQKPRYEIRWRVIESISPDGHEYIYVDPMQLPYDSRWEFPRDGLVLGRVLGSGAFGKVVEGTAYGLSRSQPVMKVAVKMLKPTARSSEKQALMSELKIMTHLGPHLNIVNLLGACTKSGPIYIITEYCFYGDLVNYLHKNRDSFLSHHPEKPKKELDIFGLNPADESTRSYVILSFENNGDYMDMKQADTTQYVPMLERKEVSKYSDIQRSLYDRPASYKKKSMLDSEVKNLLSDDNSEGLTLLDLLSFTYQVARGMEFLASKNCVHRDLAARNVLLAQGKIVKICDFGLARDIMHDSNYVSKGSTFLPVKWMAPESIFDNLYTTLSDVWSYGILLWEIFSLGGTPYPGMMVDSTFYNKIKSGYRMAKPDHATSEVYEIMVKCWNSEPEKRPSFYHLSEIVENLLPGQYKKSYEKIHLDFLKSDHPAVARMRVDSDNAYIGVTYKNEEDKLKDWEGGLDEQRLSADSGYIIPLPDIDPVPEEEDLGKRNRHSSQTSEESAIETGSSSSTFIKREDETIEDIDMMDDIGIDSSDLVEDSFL
Summary of the method: as §1

[3] = biological target: CSF1R (Homo sapiens (Human), UniProt P07333); experiment: Inhibition of CSF1R kinase activity (HTRF KinEASE-TK); details: biochemical
CSF1R, sequence (P07333 20-972): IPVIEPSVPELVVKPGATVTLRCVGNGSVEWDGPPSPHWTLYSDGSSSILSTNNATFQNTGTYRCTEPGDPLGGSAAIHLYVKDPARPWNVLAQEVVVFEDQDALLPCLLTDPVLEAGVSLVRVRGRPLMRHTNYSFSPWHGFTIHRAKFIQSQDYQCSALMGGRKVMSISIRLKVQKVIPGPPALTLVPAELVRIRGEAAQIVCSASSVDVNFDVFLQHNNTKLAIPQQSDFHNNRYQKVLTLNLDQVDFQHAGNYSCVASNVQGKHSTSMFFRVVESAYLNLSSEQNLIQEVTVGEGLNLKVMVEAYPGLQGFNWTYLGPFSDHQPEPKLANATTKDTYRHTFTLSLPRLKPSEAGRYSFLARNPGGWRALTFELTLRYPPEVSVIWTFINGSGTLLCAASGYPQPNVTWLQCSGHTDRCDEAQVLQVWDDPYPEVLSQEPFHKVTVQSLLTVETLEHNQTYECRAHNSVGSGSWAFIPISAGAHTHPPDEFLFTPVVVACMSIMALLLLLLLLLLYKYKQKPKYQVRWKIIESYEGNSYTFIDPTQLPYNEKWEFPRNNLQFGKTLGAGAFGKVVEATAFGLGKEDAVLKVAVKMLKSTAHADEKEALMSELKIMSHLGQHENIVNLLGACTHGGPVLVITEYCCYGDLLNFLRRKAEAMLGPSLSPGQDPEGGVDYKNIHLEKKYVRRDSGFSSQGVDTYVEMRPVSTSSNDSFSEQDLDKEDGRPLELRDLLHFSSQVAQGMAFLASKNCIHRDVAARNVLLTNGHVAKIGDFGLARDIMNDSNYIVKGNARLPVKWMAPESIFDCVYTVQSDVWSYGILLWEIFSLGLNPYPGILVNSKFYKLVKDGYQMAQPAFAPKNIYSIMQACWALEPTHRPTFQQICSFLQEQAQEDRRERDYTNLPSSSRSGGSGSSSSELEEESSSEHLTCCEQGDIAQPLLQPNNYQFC
Summary of the method: as §1

[4] = system: Phospho-KIT (Y703) in M07e cells; experiment: Phospho-KIT (Y703) cellular assay in M07e cells; format: cell-based; details: M-07e, read-out: M07e Cell IC50
Summary of the method: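 Serum-starved M07e cells preincubated 50 min at 37° C with 11-point half-log compound titration, then stimulated 10 min with SCF at 90.9 ng/mL final. Fixed, permeabilized cells stained for phospho-KIT Y703 and read by flow cytometry (live-gated geometric mean); IC50 by 4-parameter fit normalized to DMSO and positive control.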

[5] = biological target: c-Kit (Homo sapiens (Human), UniProt P10721); experiment: Inhibition of c-Kit kinase activity (HTRF KinEASE-TK); format: biochemical; details: biochemical
c-Kit, sequence (P10721 26-976): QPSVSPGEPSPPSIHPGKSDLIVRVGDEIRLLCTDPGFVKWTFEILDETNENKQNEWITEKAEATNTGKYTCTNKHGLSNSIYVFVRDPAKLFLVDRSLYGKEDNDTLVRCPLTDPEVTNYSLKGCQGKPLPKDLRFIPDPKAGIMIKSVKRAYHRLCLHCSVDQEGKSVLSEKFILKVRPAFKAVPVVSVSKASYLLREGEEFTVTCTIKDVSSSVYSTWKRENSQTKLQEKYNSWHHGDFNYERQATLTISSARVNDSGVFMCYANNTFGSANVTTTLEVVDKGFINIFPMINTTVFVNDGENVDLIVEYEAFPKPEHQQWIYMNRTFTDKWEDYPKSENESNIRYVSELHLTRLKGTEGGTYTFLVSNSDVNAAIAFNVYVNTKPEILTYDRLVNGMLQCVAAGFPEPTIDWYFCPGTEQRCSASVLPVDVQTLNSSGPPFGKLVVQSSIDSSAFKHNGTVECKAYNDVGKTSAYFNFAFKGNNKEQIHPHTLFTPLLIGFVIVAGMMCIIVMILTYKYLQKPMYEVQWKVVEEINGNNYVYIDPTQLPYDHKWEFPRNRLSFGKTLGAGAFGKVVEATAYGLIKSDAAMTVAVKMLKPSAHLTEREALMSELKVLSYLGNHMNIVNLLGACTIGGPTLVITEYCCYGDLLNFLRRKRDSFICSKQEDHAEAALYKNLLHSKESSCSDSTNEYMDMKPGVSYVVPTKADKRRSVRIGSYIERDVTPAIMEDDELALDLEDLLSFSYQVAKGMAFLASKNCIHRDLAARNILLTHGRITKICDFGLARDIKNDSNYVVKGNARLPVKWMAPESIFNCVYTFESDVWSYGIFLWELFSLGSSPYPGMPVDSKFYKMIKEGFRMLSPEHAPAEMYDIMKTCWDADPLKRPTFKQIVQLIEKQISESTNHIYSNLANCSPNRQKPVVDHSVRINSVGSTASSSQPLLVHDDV
Summary of the method: as §1

[6] = biological target: FLT3 (Homo sapiens (Human), UniProt P36888); experiment: Inhibition of FLT3 kinase activity (HTRF KinEASE-TK); format: biochemical; details: biochemical
FLT3, sequence (P36888 27-993): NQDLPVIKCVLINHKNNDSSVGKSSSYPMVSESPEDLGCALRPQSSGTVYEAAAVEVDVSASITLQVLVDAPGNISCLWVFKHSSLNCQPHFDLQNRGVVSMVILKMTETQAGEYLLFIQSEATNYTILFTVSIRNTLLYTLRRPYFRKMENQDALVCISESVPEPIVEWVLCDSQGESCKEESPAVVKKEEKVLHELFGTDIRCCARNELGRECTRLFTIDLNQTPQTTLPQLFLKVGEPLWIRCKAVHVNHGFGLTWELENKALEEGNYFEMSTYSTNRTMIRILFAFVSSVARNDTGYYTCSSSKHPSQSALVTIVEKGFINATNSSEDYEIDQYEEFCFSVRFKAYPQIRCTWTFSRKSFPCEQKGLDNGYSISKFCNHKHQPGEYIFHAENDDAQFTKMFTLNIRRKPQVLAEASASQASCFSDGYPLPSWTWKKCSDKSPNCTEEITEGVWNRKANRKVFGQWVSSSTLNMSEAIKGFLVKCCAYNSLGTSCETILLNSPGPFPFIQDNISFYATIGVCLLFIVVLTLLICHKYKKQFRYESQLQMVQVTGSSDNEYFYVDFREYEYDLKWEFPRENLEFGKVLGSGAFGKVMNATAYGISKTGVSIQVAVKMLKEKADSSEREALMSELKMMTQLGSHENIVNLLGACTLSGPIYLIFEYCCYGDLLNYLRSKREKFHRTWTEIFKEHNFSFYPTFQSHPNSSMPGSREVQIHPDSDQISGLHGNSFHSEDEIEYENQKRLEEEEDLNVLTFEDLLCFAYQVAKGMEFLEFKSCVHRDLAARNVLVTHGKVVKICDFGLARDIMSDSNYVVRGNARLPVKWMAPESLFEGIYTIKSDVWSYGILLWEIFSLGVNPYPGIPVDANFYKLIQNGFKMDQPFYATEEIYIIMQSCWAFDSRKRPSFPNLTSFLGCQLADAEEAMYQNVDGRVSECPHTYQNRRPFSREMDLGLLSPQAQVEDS
Protocol: Inhibition of c-Kit, PDGFRα, PDGFRβ, CSFIR and FLT3 Kinase Activity
Compounds were evaluated to determine the potency with which they inhibit the kinase activity of the following panel of tyrosine kinases: c-Kit (SignalChem, Product #: K06-11BG), PDGFRα (SignalChem, Product #: P12-18G), PDGFRβ (SignalChem, Product #: P13-11G), CSFIR (SignalChem, Product #: C74-11G) and FLT3 (Invitrogen, Product #: PR4666C). Activity was determined as a function of phosphorylated biotinylated TK peptide generated by the transfer of phosphate from ATP as measured by the use of the HTRF KinEASE-TK assay kit (Cisbio, Product #: 62TKOPEJ). Levels of phosphorylated biotinylated TK peptide (Part 61TKOBLC of KinEASE assay kit) are quantified by its capture by phosphor-TK-Antibody-Cryptate (Part of KinEASE assay kit) and XL665-labeled Streptavidin (Part 610SAXLG of KinEASE assay kit) followed by measurement of Time-Resolved Fluorescence Resonance Energy Transfer (TR-FRET) signal. On the day of the assay, compounds were solubilized in DMSO and dispensed into a 384-well white Opti-plate (PerkinElmer, catalog #6007290) to generate a 22 point 1:2 titration. Enzyme solution was prepared for each of the tyrosine kinases in 50 mM HEPES, pH 7.4, 5 mM MgCl2 for c-Kit or 10 mM MgCl2 for FLT3, CSFIR, PDGFRa and PDGFRβ, 2 mM MnCl2, 0.01% Brij-35 and 0.01% BSA. Working enzyme concentrations were prepared for c-Kit at 2 nM (2×), PDGFRa and PDGFRß at 10 nM (2×), CSFIR at 2 nM (2×) and FLT3 at 0.4 nM (2×). Five microliters of enzyme dilution of each tyrosine kinase were added to their respective 384-well white Opti-plate pre-dispensed with compound and allowed to incubate for 1 h at rt. Utilizing the same enzyme buffer recipe, 2x substrate mixes were prepared for each enzyme as follows: For c-Kit, 1.6 μM (2×) TK substrate and 16 μM (2×) ATP (Promega, catalog #V915). For PDGFRα, 3.2 μM TK substrate and 1 μM ATP. For PDGFRβ, 3.2 μM TK substrate and 40 μM ATP. For CSFIR, […] TK substrate and 20 μM ATP. For FLT3, 3.2 μM TK substrate and 100 μM ATP. Reactions were initiated by addition of 5 μL of the respective 2x substrate mix to each well of the plates containing the respective tyrosine kinase enzymes and were allowed to proceed for 120 minutes at rt, except for FLT3, the reaction time is 45 min. Following the reaction, 10 μL of detection mix consisting of 0.2 μM (2×) of Streptavidin-XL665 and 2 μM (2×) of TK-Antibody-Cryptate prepared in detection buffer (Part 62SDBRDF of KinEASE assay kit) was added and then allowed to incubate for 60 min. The TR-FRET signal was quantified by measuring the ratio of emission at 665 nm to 620 nm after excitation at 320 nm by reading on a PerkinElmer Envision multimode reader. Compound potencies (IC50 values) were determined using a standard 4-parameter non-linear regression fit.

[7] = phospho-KIT (Y703), SCF-stimulated M07e cells

PDGFRβ, sequence (P09619 33-1106): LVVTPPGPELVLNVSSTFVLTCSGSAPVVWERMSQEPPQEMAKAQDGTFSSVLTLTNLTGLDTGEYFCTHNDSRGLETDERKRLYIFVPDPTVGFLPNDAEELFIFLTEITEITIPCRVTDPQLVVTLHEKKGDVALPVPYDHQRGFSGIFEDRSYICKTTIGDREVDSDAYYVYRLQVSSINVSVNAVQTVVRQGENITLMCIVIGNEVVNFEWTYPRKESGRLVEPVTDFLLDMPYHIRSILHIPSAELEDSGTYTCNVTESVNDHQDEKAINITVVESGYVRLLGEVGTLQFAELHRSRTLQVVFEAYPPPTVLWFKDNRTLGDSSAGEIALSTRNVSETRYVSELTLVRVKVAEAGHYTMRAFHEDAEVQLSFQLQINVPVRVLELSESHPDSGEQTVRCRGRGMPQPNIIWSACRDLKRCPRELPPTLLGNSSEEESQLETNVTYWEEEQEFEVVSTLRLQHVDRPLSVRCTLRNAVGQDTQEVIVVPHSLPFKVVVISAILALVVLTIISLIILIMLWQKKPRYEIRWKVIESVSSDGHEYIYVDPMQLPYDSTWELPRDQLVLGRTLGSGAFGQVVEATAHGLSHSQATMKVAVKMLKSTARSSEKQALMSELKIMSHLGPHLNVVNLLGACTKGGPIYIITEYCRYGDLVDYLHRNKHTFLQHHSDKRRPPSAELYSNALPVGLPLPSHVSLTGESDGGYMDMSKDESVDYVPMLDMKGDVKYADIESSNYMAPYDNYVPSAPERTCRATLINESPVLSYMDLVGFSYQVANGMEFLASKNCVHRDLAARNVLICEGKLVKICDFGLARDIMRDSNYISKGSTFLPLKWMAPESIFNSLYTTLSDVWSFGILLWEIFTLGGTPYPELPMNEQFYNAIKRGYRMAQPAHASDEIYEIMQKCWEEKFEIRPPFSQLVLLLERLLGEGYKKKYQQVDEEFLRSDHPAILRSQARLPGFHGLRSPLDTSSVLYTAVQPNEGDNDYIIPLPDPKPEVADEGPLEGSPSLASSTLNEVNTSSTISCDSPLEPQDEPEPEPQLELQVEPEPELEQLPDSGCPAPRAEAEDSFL

SMILES | IC50 [1] [nM] | IC50 [2] [nM] | IC50 [3] [nM] | IC50 [4, 7] [nM] | IC50 [5] [nM] | IC50 [6] [nM] | IC50 ([1]; HTRF KinEASE-TK) [nM] | IC50 ([2]; HTRF KinEASE-TK) [nM] | IC50 ([3]; HTRF KinEASE-TK) [nM] | IC50 ([4]; Phospho-KIT (Y703), M07e cells) [nM] | IC50 ([5]; HTRF KinEASE-TK) [nM] | IC50 ([6]; HTRF KinEASE-TK) [nM] | IC50 [4] [nM]
Cc1cc(F)c(C(=O)Nc2ccc(OC(F)F)cn2)cc1NC(=O)c1cnc(N)s1 [Example 9, 2-Amino-N-[5-[[5-(difluoromethoxy)pyridin-2-yl]carbamoyl]-4-fluoro-2-methylphenyl]-1,3-thiazole-5-carboxamide] | 100 to 1000 | > 1000 | 100 to 1000 | < 100 | < 100 | > 1000 |  |  |  |  |  |  | 
COCc1ccc(NC(=O)c2cc(NC(=O)c3cnc(N)s3)c(C)cc2F)nc1 [Example 10, 2-Amino-N-[4-fluoro-5-[[5-(methoxymethyl)pyridin-2-yl]carbamoyl]-2-methylphenyl]-1,3-thiazole-5-carboxamide] | > 1000 | > 1000 | > 1000 | < 100 | < 100 | > 1000 |  |  |  |  |  |  | 
Cc1cc(F)c(C(=O)Nc2ccc(CC(F)(F)F)cn2)cc1NC(=O)c1cnc(N)s1 [Example 11, 2-Amino-N-[4-fluoro-2-methyl-5-[[5-(2,2,2-trifluoroethyl)pyridin-2-yl]carbamoyl]phenyl]-1,3-thiazole-5-carboxamide] | < 100 | 100 to 1000 | 100 to 1000 | < 100 | < 100 | > 1000 |  |  |  |  |  |  | 
CCOc1cnc(NC(=O)c2cc(NC(=O)c3cnc(C)s3)c(C)cc2F)cn1 [Example 17, N-[5-[(5-Ethoxypyrazin-2-yl)carbamoyl]-4-fluoro-2-methylphenyl]-2-methyl-1,3-thiazole-5-carboxamide] |  |  |  |  |  |  | > 1000 | > 1000 | > 1000 | < 100 | < 100 | > 1000 | 
Cc1ncc(C(=O)Nc2cc(C(=O)Nc3ccc(C(C)(F)F)cn3)c(F)cc2C)s1 [Example 20, N-[5-[[5-(1,1-Difluoroethyl)pyridin-2-yl]carbamoyl]-4-fluoro-2-methylphenyl]-2-methyl-1,3-thiazole-5-carboxamide] |  |  |  |  |  |  | > 1000 | > 1000 | > 1000 | < 100 | < 100 | > 1000 | 
Cc1ncc(C(=O)Nc2cc(C(=O)N[C@@H]3C[C@H]3c3ccccc3)c(F)cc2C)s1 [Example 31, N-[4-Fluoro-2-methyl-5-[[(1R,2S)-2-phenylcyclopropyl]carbamoyl]phenyl]-2-methyl-1,3-thiazole-5-carboxamide] |  |  |  |  |  |  | > 1000 | > 1000 | > 1000 | < 100 | < 100 | > 1000 | 
Cc1ncc(C(=O)Nc2cc(C(=O)Nc3ccc(OC(C)C)cn3)c(F)cc2C)s1 [Example 40, N-[4-fluoro-2-methyl-5-[(5-propan-2-yloxypyridin-2-yl)carbamoyl]phenyl]-2-methyl-1,3-thiazole-5-carboxamide] |  |  |  |  |  |  | > 1000 | > 1000 | > 1000 | < 100 | < 100 | > 1000 | 
Cc1ncc(C(=O)Nc2cc(C(=O)Nc3ccc(CC(F)F)cn3)c(F)cc2C)s1 [Example 45, N-[5-[[5-(2,2-difluoroethyl)pyridin-2-yl]carbamoyl]-4-fluoro-2-methylphenyl]-2-methyl-1,3-thiazole-5-carboxamide] |  |  |  |  |  |  | > 1000 | > 1000 | > 1000 |  | < 100 | > 1000 | < 100
Cc1ncc(C(=O)Nc2cc(C(=O)Nc3ccn(C(C)C)n3)c(F)cc2C)s1 [Example 63, N-[4-Fluoro-2-methyl-5-[(1-propan-2-ylpyrazol-3-yl)carbamoyl]phenyl]-2-methyl-1,3-thiazole-5-carboxamide] |  |  |  |  |  |  | > 1000 | > 1000 | > 1000 | < 100 | < 100 | > 1000 | 
Cc1ncc(C(=O)Nc2cc(C(=O)Nc3ccn(CC(C)C)n3)c(F)cc2C)s1 [Example 64, N-[4-fluoro-2-methyl-5-[[1-(2-methylpropyl)pyrazol-3-yl]carbamoyl]phenyl]-2-methyl-1,3-thiazole-5-carboxamide] |  |  |  |  |  |  | > 1000 | > 1000 | > 1000 | < 100 | < 100 | > 1000 | 
Cc1ncc(C(=O)Nc2cc(C(=O)Nc3ccc(C4(C(F)(F)F)CC4)cn3)c(F)cc2C)s1 [Example 67] |  |  |  |  |  |  | 100 to 1000 | > 1000 | > 1000 | < 100 | < 100 | > 1000 | 
Cc1ncc(C(=O)Nc2cc(C(=O)Nc3ccc(CC(F)(F)F)cn3)c(C)cc2C)s1 [Example 75, N-(2,4-dimethyl-5-((5-(2,2,2-trifluoroethyl)pyridin-2-yl)carbamoyl)phenyl)-2-methylthiazole-5-carboxamide] |  |  |  |  |  |  | > 1000 | > 1000 | > 1000 |  | 100 to 1000 | > 1000 | 100 to 1000
Cc1ncc(C(=O)Nc2cc(C(=O)Nc3ccc(COC(F)F)cn3)c(F)cc2C)s1 [Example 78, N-[5-[[5-(difluoromethoxymethyl)pyridin-2-yl]carbamoyl]-4-fluoro-2-methylphenyl]-2-methyl-1,3-thiazole-5-carboxamide] |  |  |  |  |  |  | > 1000 | > 1000 | > 1000 |  | < 100 | > 1000 | < 100
Cc1ncc(C(=O)Nc2cc(C(=O)Nc3cncc(COC(F)F)c3)c(F)cc2C)s1 [Example 80, N-[5-[[5-(difluoromethoxymethyl)pyridin-3-yl]carbamoyl]-4-fluoro-2-methylphenyl]-2-methyl-1,3-thiazole-5-carboxamide] |  |  |  |  |  |  | > 1000 | > 1000 | > 1000 |  | < 100 | > 1000 | < 100
